The target of one assay is RIPK1 (Homo sapiens (Human), UniProt Q13546). The assay can be described thus: RIPK1 Binding Assay. Particulars: displacement of fluorescent probe, TR-FRET. The method, then: Compounds were tested for their ability to displace a fluorescent probe from recombinant human RIPK1.
Recombinant human RIPK1 (1-375) was prepared as described in Harris et al., ACS Med. Chem. Letters (2013) 4:1238-1243 (Supplementary Information), with the following exceptions: (i) instead of using the gene sequence from NM_003804.3, the gene was synthesized with codon optimization for BEV expression system, and (ii) the gene was cloned into the vector pFastBac1, not pDEST8.
A fluorescent probe containing an Oregon green fluorophore was synthesized from a compound known to bind to RIPK1.
The assay was performed in a buffer containing 50 mM N-2-Hydroxyethylpiperazine-N′-2-ethanesulfonic acid (HEPES) (pH 7.5), 10 mM MgCl2, 1 mM ethylene diamine tetraacetic acid (EDTA), and 0.01% BRIJ-35 (Polyoxyethylene (23) lauryl ether). Test compounds were solvated in dimethyl sulfoxide (DMSO) at final concentrations 4-fold serially diluted from 100 to 0.000095 uM in technical duplicates into an empty 384 well plate. Recombinant RIPK1 (final concentration of 2.5 nM) was added to the wells and incubated with test compound for 1 hour at room temperature. A solution containing the fluorescent probe (final concentration 5 nM) and an LanthaScreen Tb-anti-GST antibody (Thermofisher Scientific; final concentration of 5 nM) was then added to each well, with the Tb-anti-GST antibody binding to the GST portion of the recombinant RIPK1 and providing the corresponding FRET pair to the fluorescent probe. The plate was incubated for 1 hour at room temperature and read on an Envision plate reader using a time resolved FRET protocol. Data was normalized and analyzed using Studies from Dotmatics.
A general note: TR-FRET usually uses a lanthanide donor and a delayed reading to cut background.

In another assay the test system is U937 cells. The assay can be described thus: U937 TNF/zVAD Cytotoxicity Cell Assay. The class given is cell-based. Particulars: Homo sapiens, U-937; TNFα 10 ng/mL + Z-VAD FMK 20 μM, 16-20 hours; read-out: U937 TNF/zVAD Induced Cytotoxicity IC50. The protocol:
Compounds were tested for their ability to prevent TNF induced necroptosis in U937 cells. Treatment with TNF and the caspase inhibitor zVAD-FMK results in the activation and phosphorylation of RIPK1 and subsequent phosphorylation of RIPK3 and MLKL (Mixed Lineage Kinase Domain Like Pseudokinase), leading to induction of necroptotic cell death that is measured as a reduction in cell viability. Similar U937 assay protocols have been previously described; see, e.g., Harris et al., ACS Med. Chem. Letters (2013) 4:1238-1243 and Supplementary Information.
Test compounds were solvated in dimethyl sulfoxide (DMSO) and 3-fold serially diluted from 10 uM to 0.0005 uM with technical duplicates into an empty 384 well plate. U937 cells were resuspended at a concentration of 500,000 cells/mL in fresh RPMI (Roswell Park Memorial Institute) 1640 growth medium containing 10% heat inactivated fetal bovine serum (FB1S) and seeded into a 384 well plate containing compounds and incubated for 1 hour at 37° C. Following incubation, the cells were challenged with TNFα (final concentration of 10 ng/mL) and Z-VAD FMK (N-Benzyloxycarbonyl-Val-Ala-Asp(O-Me) fluoromethyl ketone; final concentration of 20 μM) for 16-20 hours at 37° C. Following the incubation with TNFα/Z-VAD, cells were lysed with Cell Titer-Glo and incubated for 5-10 minutes. The plate was then read on an Envision plate reader. Data was normalized and analyzed with Studies from Dotmatics.

Sequence of RIPK1 (Q13546 1-375): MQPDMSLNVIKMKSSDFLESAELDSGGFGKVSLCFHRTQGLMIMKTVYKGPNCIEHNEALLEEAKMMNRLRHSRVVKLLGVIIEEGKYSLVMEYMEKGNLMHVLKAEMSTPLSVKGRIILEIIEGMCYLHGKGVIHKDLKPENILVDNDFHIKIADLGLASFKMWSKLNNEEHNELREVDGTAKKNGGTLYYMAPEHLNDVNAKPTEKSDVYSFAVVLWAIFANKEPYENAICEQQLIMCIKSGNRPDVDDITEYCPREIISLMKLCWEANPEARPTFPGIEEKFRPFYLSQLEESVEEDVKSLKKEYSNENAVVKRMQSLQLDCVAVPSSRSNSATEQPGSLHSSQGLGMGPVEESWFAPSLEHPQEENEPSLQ

Turning to `CN(C[C@@H](O)Cc1ccccc1)C(=O)c1cncc(C#Cc2cnn(C)c2C2CC2)c1` [Example 11, (S)-5-((5-cyclopropyl-1-methyl-1H-pyrazol-4-yl)ethynyl)-N-(2-hydroxy-3-phenylpropyl)-N-methylnicotinamide], the IC50 is 2 nM on RIPK1 and 5 nM with U937 cells.
At RIPK1, `Cc1ncc(C#Cc2cncc(C(=O)N(C)C[C@@H](O)Cc3ccccc3)c2)s1` [Example 15, (S)-N-(2-hydroxy-3-phenylpropyl)-N-methyl-5-((2-methylthiazol-5-yl)ethynyl) nicotinamide] came in with an IC50 of 25000 nM.
Turning to `CN(C[C@@H](O)Cc1cccc(F)c1)C(=O)c1cncc(C#Cc2cnn(C)c2)c1` [Example 12, (S)-N-(3-(3-fluorophenyl)-2-hydroxypropyl)-N-methyl-5-((1-methyl-1H-pyrazol-4-yl)ethynyl)nicotinamide], the IC50 on RIPK1 was 13 nM; with U937 cells, 20 nM.
Taken in the same sequence, the figures for `CN(C[C@@H](O)Cc1ccccc1)C(=O)c1cncc(C#Cc2cnn(C3COC3)n2)c1` [Example 10, (S)-N-(2-hydroxy-3-phenylpropyl)-N-methyl-5-((2-(oxetan-3-yl)-2H-1,2,3-triazol-4-yl)ethynyl)nicotinamide] were 43 nM and 380 nM.
Taken in the same sequence, the figures for `CN(C[C@@H](O)Cc1ccccc1)C(=O)c1cncc(C#Cc2cnn3c2COCC3)c1` [Example 8, (S)-5-((6,7-Dihydro-4H-pyrazolo[5,1-c][1,4]oxazin-3-yl)ethynyl)-N-(2-hydroxy-3-phenylpropyl)-N-methylnicotinamide] were 6 nM and 13 nM.
Taken in the same sequence, the figures for `Cc1c(C#Cc2cncc(C(=O)N(C)C[C@@H](O)Cc3ccccc3)c2)cnn1C(F)F` [Example 26, (S)-5-((1-(difluoromethyl)-5-methyl-1H-pyrazol-4-yl)ethynyl)-N-(2-hydroxy-3-phenylpropyl)-N-methylnicotinamide] were 1.8 nM and 3 nM.
For `CN(C[C@@H](O)Cc1ccccc1)C(=O)c1cncc(C#Cc2cnn(C3CC3)c2)c1` [Example 5, (S)-5-((1-cyclopropyl-1H-pyrazol-4-yl)ethynyl)-N-(2-hydroxy-3-phenylpropyl)-N-methylnicotinamide], the IC50 on RIPK1 was found to be 14 nM; in the assay with U937 cells, 49 nM.
Taken in the same sequence, the figures for `Cc1ncc(C#Cc2cncc(C(=O)N(C)C[C@@H](O)Cc3ccccc3)c2)o1` [Example 17, (S)-N-(2-hydroxy-3-phenylpropyl)-N-methyl-5-((2-methyloxazol-5-yl)ethynyl)nicotinamide] were 32 nM and 146 nM.
For `CN(C[C@@H](O)Cc1ccccc1)C(=O)c1cncc(C#Cc2cnn(C3CCC3)c2)c1` [Example 6, (S)-5-((1-cyclobutyl-1H-pyrazol-4-yl)ethynyl)-N-(2-hydroxy-3-phenylpropyl)-N-methylnicotinamide], the IC50 on RIPK1 amounted to 3 nM; in the assay with U937 cells, 6 nM.
As for `COc1ncc(C(=O)N(C)C[C@@H](O)Cc2ccccc2)cc1C#Cc1cnn(C)c1` [Example 13, (S)-N-(2-hydroxy-3-phenylpropyl)-6-methoxy-N-methyl-5-((1-methyl-1H-pyrazol-4-yl)ethynyl)nicotinamide], the IC50 on RIPK1 was 95 nM; with U937 cells, 382 nM.
Take `CN(C[C@@H](O)Cc1ccccc1)C(=O)c1cncc(C#Cc2cnn(C)n2)c1` [Example 3, (S)-N-(2-hydroxy-3-phenylpropyl)-N-methyl-5-((2-methyl-2H-1,2,3-triazol-4-yl)ethynyl)nicotinamide]: the IC50 at RIPK1 stood at 36 nM; in the assay on U937 cells it was 196 nM.
`CN(C[C@@H](O)Cc1ccccc1)C(=O)c1cncc(C#Cc2cnn(C(F)(F)F)c2)c1` [Example 4, (S)-N-(2-hydroxy-3-phenylpropyl)-N-methyl-5-((1-(trifluoromethyl)-1H-pyrazol-4-yl)ethynyl)nicotinamide]: the results for the IC50 on RIPK1 and in the assay with U937 cells were 30 nM and 199 nM, respectively.
The like results for `CN(C[C@@H](O)[C@@H](F)c1ccccc1)C(=O)c1cncc(C#Cc2cnn(C)c2)c1` [Example 7, N-((2R,3S)-3-fluoro-2-hydroxy-3-phenylpropyl)-N-methyl-5-((1-methyl-1H-pyrazol-4-yl)ethynyl)nicotinamide] were, in that order, 7 nM and 9 nM.
Taken in the same sequence, the figures for `CN(CC(O)Cc1ccccc1)C(=O)c1cnc(C(F)F)c(C#Cc2cnn(C)c2)c1` (stereo in doubt) [Example 9, (S)-6-(difluoromethyl)-N-(2-hydroxy-3-phenylpropyl)-N-methyl-5-((1-methyl-1H-pyrazol-4-yl)ethynyl)nicotinamide] were 18 nM and 29 nM.
For the compound `Cc1ncc(C(=O)NC[C@@H](O)Cc2ccccc2)cc1C#Cc1cncs1` [Example 16, (S)-N-(2-hydroxy-3-phenylpropyl)-6-methyl-5-(thiazol-5-ylethynyl)nicotinamide], the IC50 with U937 cells amounted to 2580 nM.
